HELM strings list units from the 5' end as sugar, base in round brackets, then linkage (d deoxyribose, r ribose, m 2'-O-methyl, p phosphodiester). Strings are as the collection lists them, not checked against the first reports. ss, as = sense and antisense strand; [lna] = locked nucleic acid (LNA); [hna] = hexitol nucleic acid; [s4r] = 4'-thioribose; [fl2r] = 2'-fluoro
Details: siRNA
Further: test system not given here.

Substance	target mRNA knockdown [%]
RNA1{r(U)p.r(C)p.r(C)p.r(U)p.r(C)p.r(G)p.r(U)p.m(C)p.r(G)p.r(U)p.r(C)p.m(U)p.r(G)p.r(U)p.r(U)p.r(C)p.m(U)p.r(A)p.r(A)p.r(T)p.r(T)}|RNA2{r(U)p.m(U)p.r(A)p.r(G)p.r(A)p.r(A)p.m(C)p.r(A)p.r(G)p.r(A)p.r(C)p.r(G)p.r(A)p.r(C)p.r(G)p.r(A)p.r(G)p.r(G)p.r(A)p.r(T)p.r(T)}$$$RNA1{StrandType:ss}|RNA2{StrandType:as}$	82
RNA1{[fl2r](A)p.r(G)p.[fl2r](A)p.r(A)p.[fl2r](G)p.r(U)p.[fl2r](A)p.r(C)p.[fl2r](C)p.r(A)p.[fl2r](G)p.r(G)p.[fl2r](A)p.r(G)p.[fl2r](G)p.r(C)p.[fl2r](G)p.r(U)p.[fl2r](U)p.r(T)p.r(T)}|RNA2{r(A)p.r(A)p.r(C)p.[fl2r](G)p.r(C)p.r(C)p.r(U)p.r(C)p.r(C)p.r(U)p.[fl2r](G)p.[fl2r](G)p.r(U)p.r(A)p.r(C)p.r(U)p.r(U)p.r(C)p.r(U)p.r(T)p.r(T)}$$$RNA1{StrandType:ss}|RNA2{StrandType:as}$	39
RNA1{r(A)p.r(A)p.r(C)p.r(C)p.r(C)p.r(A)p.r(C)p.r(C)p.r(A)p.r(C)p.r(A)p.r(G)p.r(C)p.m(U)p.m(A)p.r(G)p.r(A)p.r(A)p.r(C)p.m(U)p.m(U)}|RNA2{r(A)p.r(A)p.r(G)p.m(U)p.m(U)p.r(C)p.m(U)p.m(A)p.r(G)p.r(C)p.m(U)p.r(G)p.m(U)p.r(G)p.r(G)p.m(U)p.r(G)p.r(G)p.r(G)p.m(U)p.m(U)}$$$RNA1{StrandType:ss}|RNA2{StrandType:as}$	24
RNA1{[fl2r](G)p.m(A)p.[fl2r](C)p.m(G)p.[fl2r](U)p.m(A)p.[fl2r](A)p.m(A)p.[fl2r](C)p.m(G)p.[fl2r](G)p.m(C)p.[fl2r](C)p.m(A)p.[fl2r](C)p.m(A)p.[fl2r](A)p.m(G)p.[fl2r](U)p.m(U)p.[fl2r](C)}|RNA2{r(A)p.m(C)p.r(U)p.r(U)p.r(G)p.r(U)p.r(G)p.r(G)p.r(C)p.r(C)p.r(G)p.r(U)p.r(U)p.r(U)p.r(A)p.r(C)p.r(G)p.r(U)p.r(C)p.r(G)p.r(C)}$$$RNA1{StrandType:ss}|RNA2{StrandType:as}$	46.2
RNA1{r(G)p.r(C)p.r(U)p.r(U)p.m(U)p.r(A)p.r(A)p.r(G)p.r(G)p.r(A)p.r(A)p.r(C)p.m(U)p.r(G)p.r(G)p.r(A)p.r(A)p.r(G)p.r(G)p.r(T)p.r(T)}|RNA2{r(C)p.r(C)p.r(U)p.r(U)p.r(C)p.m(C)p.r(A)p.r(G)p.r(U)p.r(U)p.r(C)p.r(C)p.r(U)p.m(U)p.r(A)p.r(A)p.r(A)p.r(G)p.r(C)p.r(T)p.r(T)}$$$RNA1{StrandType:ss}|RNA2{StrandType:as}$	37
RNA1{r(G)p.[hna](A)p.r(C)p.r(G)p.r(U)p.r(A)p.r(A)p.[hna](A)p.r(C)p.r(G)p.r(G)p.r(C)p.r(C)p.[hna](A)p.r(C)p.r(A)p.[hna](A)p.r(G)p.r(U)p.r(U)p.r(C)}|RNA2{r(A)p.r(C)p.[lna](T)p.r(U)p.r(G)p.[lna](T)p.r(G)p.r(G)p.r(C)p.r(C)p.r(G)p.r(U)p.r(U)p.[lna](T)p.r(A)p.r(C)p.r(G)p.[lna](T)p.r(C)p.[lna](G)p.[lna](C)}$$$RNA1{StrandType:ss}|RNA2{StrandType:as}$	3.6
RNA1{r(C)p.r(U)p.r(U)p.r(A)p.r(C)p.r(G)p.r(C)p.r(U)p.r(G)p.r(A)p.r(G)p.r(U)p.r(A)p.r(C)p.r(U)p.r(U)p.r(C)p.r(G)p.r(A)p.r(T)p.r(T)}|RNA2{r(U)p.r(C)p.r(G)p.r(A)p.r(A)p.r(G)p.r(U)p.r(A)p.r(C)p.r(U)p.r(C)p.r(A)p.r(G)p.r(C)p.r(G)p.r(U)p.r(A)p.r(A)p.[lna](G)p.r(T)p.r(T)}$$$RNA1{StrandType:ss}|RNA2{StrandType:as}$	88
RNA1{r(G)p.r(C)p.r(G)p.r(C)p.r(U)p.r(G)p.r(C)p.r(U)p.r(G)p.r(G)p.r(U)p.r(G)p.r(C)p.r(C)p.r(A)p.r(A)p.r(C)p.r(C)p.r(C)p.d(T)p.d(T)}|RNA2{r(G)p.r(G)p.r(G)p.r(U)p.r(U)p.r(G)p.r(G)p.r(C)p.r(A)p.r(C)p.r(C)p.r(A)p.r(G)p.r(C)p.r(A)p.r(G)p.r(C)p.r(G)p.r(C)p.d(T)p.d(T)}$$$RNA1{StrandType:ss}|RNA2{StrandType:as}$	74
RNA1{r(C)p.[fl2r](C)p.r(A)p.r(G)p.r(C)p.r(G)p.r(A)p.r(G)p.r(C)p.r(C)p.[fl2r](C)p.r(A)p.r(A)p.r(A)p.r(A)p.[fl2r](G)p.r(A)p.r(A)p.r(A)p.r(T)p.r(T)}|RNA2{r(U)p.r(U)p.r(U)p.r(C)p.r(U)p.r(U)p.r(U)p.[fl2r](U)p.r(G)p.r(G)p.r(G)p.r(C)p.r(U)p.r(C)p.r(G)p.r(C)p.[fl2r](U)p.r(G)p.r(G)p.r(T)p.r(T)}$$$RNA1{StrandType:ss}|RNA2{StrandType:as}$	82
RNA1{r(G)p.r(A)p.r(C)p.r(G)p.[hna](U)p.r(A)p.r(A)p.[hna](A)p.r(C)p.r(G)p.[hna](G)p.r(C)p.r(C)p.[hna](A)p.r(C)p.r(A)p.r(A)p.r(G)p.[hna](U)p.[hna](U)p.d(T)}|RNA2{r(A)p.[hna](C)p.r(U)p.r(U)p.r(G)p.r(U)p.r(G)p.r(G)p.r(C)p.r(C)p.r(G)p.r(U)p.r(U)p.r(U)p.r(A)p.r(C)p.r(G)p.[hna](U)p.[hna](C)p.[hna](G)p.d(T)}$$$RNA1{StrandType:ss}|RNA2{StrandType:as}$	23.2
RNA1{m(A)p.m(A)p.m(G)p.m(G)p.m(A)p.m(G)p.m(A)p.m(U)p.m(C)p.m(A)p.m(A)p.m(C)p.m(A)p.m(U)p.m(U)p.m(U)p.m(U)p.m(C)p.m(A)p.r(T)p.r(T)}|RNA2{[fl2r](U)p.r(G)p.r(A)p.r(A)p.r(A)p.r(A)p.[fl2r](U)p.r(G)p.r(U)p.r(U)p.r(G)p.r(A)p.[fl2r](U)p.[fl2r](C)p.[fl2r](U)p.[fl2r](C)p.[fl2r](C)p.[fl2r](U)p.[fl2r](U)p.r(T)p.r(T)}$$$RNA1{StrandType:ss}|RNA2{StrandType:as}$	71
RNA1{r(C)p.r(U)p.r(C)p.r(C)p.r(G)p.r(A)p.m(C)p.m(A)p.r(G)p.r(A)p.m(U)p.r(G)p.r(A)p.r(A)p.r(G)p.r(G)p.r(A)p.r(A)p.r(A)p.r(T)p.r(T)}|RNA2{r(U)p.r(U)p.r(U)p.r(C)p.r(C)p.r(U)p.r(U)p.m(C)p.r(A)p.r(U)p.r(C)p.m(U)p.m(G)p.r(U)p.r(C)p.r(G)p.r(G)p.r(A)p.r(G)p.r(T)p.r(T)}$$$RNA1{StrandType:ss}|RNA2{StrandType:as}$	70
RNA1{r(U)p.r(U)p.r(U)p.r(C)p.r(A)p.r(C)p.r(U)p.r(A)p.r(C)p.r(U)p.r(C)p.r(C)p.r(U)p.r(A)p.r(C)p.r(G)p.r(A)p.r(G)p.r(C)p.d(T)p.d(T)}|RNA2{r(G)p.r(C)p.r(U)p.r(C)p.r(G)p.r(U)p.r(A)p.r(G)p.r(G)p.r(A)p.r(G)p.r(U)p.r(A)p.r(G)p.r(U)p.r(G)p.r(A)p.r(A)p.r(A)p.d(T)p.d(T)}$$$RNA1{StrandType:ss}|RNA2{StrandType:as}$	0
RNA1{[s4r](A)p.[s4r](A)p.[s4r](A)p.[s4r](C)p.r(A)p.r(U)p.r(G)p.r(C)p.r(A)p.r(G)p.r(A)p.r(A)p.r(A)p.r(A)p.r(U)p.r(G)p.r(C)p.r(U)p.r(G)p.r(T)p.r(T)}|RNA2{r(C)p.r(A)p.r(G)p.r(C)p.r(A)p.r(U)p.r(U)p.r(U)p.r(U)p.r(C)p.r(U)p.r(G)p.r(C)p.r(A)p.r(U)p.[s4r](G)p.[s4r](U)p.[s4r](U)p.[s4r](U)p.r(T)p.r(T)}$$$RNA1{StrandType:ss}|RNA2{StrandType:as}$	80.7

— the OligoGym collection
